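The compound was tested at five concentrations on cells cultured in 96-well plates, with a 48-hour exposure period. GI50 is the concentration that inhibits growth by half. Definition used: TGI = concentration required for complete inhibition of growth.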
What was measured:
Test in all cases: inhibition of tumour cell growth, NCI panel, 48 h
786-0 renal = test system: 786-0 renal
UACC-257 melanoma = test system: UACC-257 melanoma
BT-549 breast = test system: BT-549 breast
A549 NSCLC = test system: A549 NSCLC
NCI/ADR-RES ovarian = test system: NCI/ADR-RES ovarian
KM12 colon = test system: KM12 colon
SNB-75 CNS = test system: SNB-75 CNS
T-47D breast = test system: T-47D breast
HCT-15 colon = test system: HCT-15 colon
HL-60(TB) leukemia = test system: HL-60(TB) leukemia
NCI-H522 lung = test system: NCI-H522 lung
LOX IMVI melanoma = test system: LOX IMVI melanoma
RXF 393 renal = test system: RXF 393 renal
SK-MEL-28 melanoma = test system: SK-MEL-28 melanoma
M14 melanoma = test system: M14 melanoma
OVCAR-4 ovarian = test system: OVCAR-4 ovarian
SW-620 colon = test system: SW-620 colon
MDA-MB-231 breast = test system: MDA-MB-231 breast
EKVX NSCLC = test system: EKVX NSCLC
SF-295 CNS = test system: SF-295 CNS
HT29 colon = test system: HT29 colon
SK-MEL-5 melanoma = test system: SK-MEL-5 melanoma
SN12C renal = test system: SN12C renal
PC-3 prostate = test system: PC-3 prostate
SNB-19 CNS = test system: SNB-19 CNS
OVCAR-8 ovarian = test system: OVCAR-8 ovarian
SF-268 CNS = test system: SF-268 CNS
TK-10 renal = test system: TK-10 renal
CCRF-CEM leukemia = test system: CCRF-CEM leukemia
HOP-92 NSCLC = test system: HOP-92 NSCLC
SR leukemia = test system: SR leukemia
NCI-H226 lung = test system: NCI-H226 lung
SK-MEL-2 melanoma = test system: SK-MEL-2 melanoma
HCT-116 colon = test system: HCT-116 colon
IGROV1 ovarian = test system: IGROV1 ovarian
A498 renal = test system: A498 renal
HS 578T breast = test system: HS 578T breast
HOP-62 NSCLC = test system: HOP-62 NSCLC
MCF7 breast = test system: MCF7 breast
U251 CNS = test system: U251 CNS
OVCAR-5 ovarian = test system: OVCAR-5 ovarian
DU-145 prostate = test system: DU-145 prostate
NCI-H460 lung = test system: NCI-H460 lung
SF-539 CNS = test system: SF-539 CNS
UO-31 renal = test system: UO-31 renal
MDA-MB-435 = test system: MDA-MB-435
SK-OV-3 ovarian = test system: SK-OV-3 ovarian
COLO 205 colon = test system: COLO 205 colon
NCI-H23 lung = test system: NCI-H23 lung
RPMI-8226 leukemia = test system: RPMI-8226 leukemia
MALME-3M melanoma = test system: MALME-3M melanoma
ACHN renal = test system: ACHN renal
UACC-62 melanoma = test system: UACC-62 melanoma
CAKI-1 renal = test system: CAKI-1 renal
MOLT-4 leukemia = test system: MOLT-4 leukemia
OVCAR-3 ovarian = test system: OVCAR-3 ovarian

CCN(CC)c1ccc(/C=C/C(=O)c2ccc(Nc3nc(Nc4ccccc4)nc(Nc4ccccc4)n3)cc2)cc1
GI50 (786-0 renal): 5.21 µM
TGI (786-0 renal): 27.7 µM
GI50 (UACC-257 melanoma): 20.4 µM
TGI (UACC-257 melanoma): > 100 µM
GI50 (BT-549 breast): 3.98 µM
TGI (BT-549 breast): 28.1 µM
GI50 (A549 NSCLC): 12.8 µM
TGI (A549 NSCLC): 78.1 µM
GI50 (NCI/ADR-RES ovarian): 4.3 µM
TGI (NCI/ADR-RES ovarian): > 100 µM
GI50 (KM12 colon): 1.42 µM
TGI (KM12 colon): 65.1 µM
GI50 (SNB-75 CNS): 3.9 µM
TGI (SNB-75 CNS): 64.8 µM
GI50 (T-47D breast): 2.65 µM
TGI (T-47D breast): 41 µM
GI50 (HCT-15 colon): 2.54 µM
TGI (HCT-15 colon): > 100 µM
GI50 (HL-60(TB) leukemia): 18 µM
TGI (HL-60(TB) leukemia): > 100 µM
GI50 (NCI-H522 lung): 5.94 µM
TGI (NCI-H522 lung): > 100 µM
GI50 (LOX IMVI melanoma): 6.87 µM
TGI (LOX IMVI melanoma): > 100 µM
GI50 (RXF 393 renal): 2.97 µM
TGI (RXF 393 renal): 16.8 µM
GI50 (SK-MEL-28 melanoma): 19.8 µM
TGI (SK-MEL-28 melanoma): > 100 µM
GI50 (M14 melanoma): 3.02 µM
TGI (M14 melanoma): > 100 µM
GI50 (OVCAR-4 ovarian): 32.3 µM
TGI (OVCAR-4 ovarian): > 100 µM
GI50 (SW-620 colon): 31.2 µM
TGI (SW-620 colon): > 100 µM
GI50 (MDA-MB-231 breast): 13.5 µM
TGI (MDA-MB-231 breast): > 100 µM
GI50 (EKVX NSCLC): 4.07 µM
TGI (EKVX NSCLC): > 100 µM
GI50 (SF-295 CNS): 1.41 µM
TGI (SF-295 CNS): 23.3 µM
GI50 (HT29 colon): 20.3 µM
TGI (HT29 colon): > 100 µM
GI50 (SK-MEL-5 melanoma): 1.17 µM
TGI (SK-MEL-5 melanoma): 44.9 µM
GI50 (SN12C renal): > 100 µM
TGI (SN12C renal): > 100 µM
GI50 (PC-3 prostate): 3.2 µM
TGI (PC-3 prostate): 18.6 µM
GI50 (SNB-19 CNS): 41.3 µM
TGI (SNB-19 CNS): > 100 µM
GI50 (OVCAR-8 ovarian): 9.95 µM
TGI (OVCAR-8 ovarian): > 100 µM
GI50 (SF-268 CNS): 8.51 µM
TGI (SF-268 CNS): 47.2 µM
GI50 (TK-10 renal): 2.39 µM
TGI (TK-10 renal): 19.8 µM
GI50 (CCRF-CEM leukemia): 3.15 µM
TGI (CCRF-CEM leukemia): > 100 µM
GI50 (HOP-92 NSCLC): 0.0316 µM
TGI (HOP-92 NSCLC): 4.84 µM
GI50 (SR leukemia): 1.03 µM
TGI (SR leukemia): 3.86 µM
GI50 (NCI-H226 lung): 26.9 µM
TGI (NCI-H226 lung): > 100 µM
GI50 (SK-MEL-2 melanoma): 4.04 µM
TGI (SK-MEL-2 melanoma): 85.2 µM
GI50 (HCT-116 colon): 2.47 µM
TGI (HCT-116 colon): > 100 µM
GI50 (IGROV1 ovarian): 4.64 µM
TGI (IGROV1 ovarian): > 100 µM
GI50 (A498 renal): 7.44 µM
TGI (A498 renal): 48 µM
GI50 (HS 578T breast): 4.04 µM
TGI (HS 578T breast): 69.5 µM
GI50 (HOP-62 NSCLC): 2.55 µM
TGI (HOP-62 NSCLC): 28.1 µM
GI50 (MCF7 breast): 1.99 µM
TGI (MCF7 breast): 21.8 µM
GI50 (U251 CNS): 4.82 µM
TGI (U251 CNS): > 100 µM
GI50 (OVCAR-5 ovarian): 17.5 µM
TGI (OVCAR-5 ovarian): > 100 µM
GI50 (DU-145 prostate): 5.04 µM
TGI (DU-145 prostate): 79.2 µM
GI50 (NCI-H460 lung): 2.55 µM
TGI (NCI-H460 lung): 17.6 µM
GI50 (SF-539 CNS): 9.08 µM
TGI (SF-539 CNS): > 100 µM
GI50 (UO-31 renal): 2.69 µM
TGI (UO-31 renal): > 100 µM
GI50 (MDA-MB-435): 9.26 µM
TGI (MDA-MB-435): > 100 µM
GI50 (SK-OV-3 ovarian): 10.6 µM
TGI (SK-OV-3 ovarian): > 100 µM
GI50 (COLO 205 colon): 1.17 µM
TGI (COLO 205 colon): 21.9 µM
GI50 (NCI-H23 lung): 11.1 µM
TGI (NCI-H23 lung): > 100 µM
GI50 (RPMI-8226 leukemia): 3.26 µM
TGI (RPMI-8226 leukemia): > 100 µM
GI50 (MALME-3M melanoma): 9.52 µM
TGI (MALME-3M melanoma): > 100 µM
GI50 (ACHN renal): 6.1 µM
TGI (ACHN renal): > 100 µM
GI50 (UACC-62 melanoma): 57.4 µM
TGI (UACC-62 melanoma): > 100 µM
GI50 (CAKI-1 renal): 5.17 µM
TGI (CAKI-1 renal): 38 µM
GI50 (MOLT-4 leukemia): 2.08 µM
TGI (MOLT-4 leukemia): 12 µM
GI50 (OVCAR-3 ovarian): 2.12 µM
TGI (OVCAR-3 ovarian): 20 µM
